How the values were obtained:
cytochrome P450OX [1] = target: T1, cytochrome P450OX (Sorghum bicolor, UniProt O48958); experiment: reconstitution of cytochrome P450OX activity in lipid micelles; type: biochemical; design: from tissue; host or cells: microsomes of etiolated Sorghum bicolor seedlings; conditions: 10 mM, in place of NADPH
T1 sequence (O48958 2-531): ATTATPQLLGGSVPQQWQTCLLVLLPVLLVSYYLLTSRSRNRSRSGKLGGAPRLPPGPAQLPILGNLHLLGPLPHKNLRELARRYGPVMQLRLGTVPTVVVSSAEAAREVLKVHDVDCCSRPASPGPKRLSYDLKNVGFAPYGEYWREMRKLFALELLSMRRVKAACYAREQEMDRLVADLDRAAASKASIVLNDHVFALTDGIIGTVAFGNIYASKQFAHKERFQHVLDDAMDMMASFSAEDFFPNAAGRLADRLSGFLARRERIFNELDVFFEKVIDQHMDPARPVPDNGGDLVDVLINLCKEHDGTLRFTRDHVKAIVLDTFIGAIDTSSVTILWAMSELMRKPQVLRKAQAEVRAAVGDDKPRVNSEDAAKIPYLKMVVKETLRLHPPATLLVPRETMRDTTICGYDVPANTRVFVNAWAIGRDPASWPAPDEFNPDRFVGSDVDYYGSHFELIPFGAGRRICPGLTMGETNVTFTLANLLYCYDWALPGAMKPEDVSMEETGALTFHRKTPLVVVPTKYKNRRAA
Excerpt: (§1) Reconstitution of the enzyme activity of a microsomal cytochrome P450 is accomplished by inserting the cytochrome P450 enzyme and the corresponding NADPH cytochrome P450 oxidoreductase into lipid micelles. A mixture of lipids can be used but in the case of cytochrome P450OX, dilauroylphosphatidylcholine (DLPC) provides the best enzymatic activity. The number of correctly formed complexes of cytochrome P450OX and NADPH cytochrome P450 oxidoreductase are a rate limiting factor. Excess amounts of the oxidoreductase and concentrated enzyme solutions are utilized to ensure a sufficient number of active complexes.
(§2) A functionally reconstituted enzyme is obtained using the following components: […]
(§3) The complete reaction mixtures contain: 3 μl of isolated, recombinant P450TYR (6 pmol, heterologously expressed in E. coli and isolated as in Halkier et al, Arch. Biochem. Biophys. 322: 369-377, 1995), 10 μl of isolated and dialyzed P450OX (approximately 0.4 pmol), 5 μl of NADPH-P450 oxidoreductase (0.075 U), 1 μl of partially purified UDPG glucosyl transferase from Sorghum, 5 μl of DLPC (10 mg/ml in 50 mM Kpi (pH7)), 0.25 μl of [U-^14C]-tyrosine ([…], 443 mCi/mmol, Amersham), 3 μl of UDPG (33 mg/ml in 50 mM Kpi (pH7)), and 3 μl of castanospermin (2 mM in 50 mM Kpi (pH7)). […] The first set of reaction mixtures is analyzed using the ethyl acetate/toluene solvent as in example 4.5. […]

[2] = tested on: glucosidase activity present in the UDPG glucosyltransferase extract; experiment: inhibition of glucosidase activity in the in vitro dhurrin reconstitution; type: biochemical, Sorghum; conditions: 3 μl of 2 mM in 30 μl reaction mixture
Protocol: as §3, with “4.5. The second set of reaction mixtures is analyzed using a solvent system consisting of ethyl acetate/acetone/dichloromethane/methanol/water (20/15/6/5/4, v/v/v/v/v) in order to achieve separation of the hydrophilic product dhurrin from tyrosine and from the hydrophobic intermediates.” for “4.5.”
The combined use of isolated P450TYR and P450OX in reconstitution experiments with radiolabeled tyrosine as substrate results in the production of p-hydroxyphenylacetonitrile and p-hydroxybenzaldehyde. […] Due to the lability of p-hydroxymandelonitrile its conversion to dhurrin is experimentally detected as a disappearance of p-hydroxybenzaldehyde. […]

P450OX = target: T2, P450OX (Sorghum bicolor, UniProt O48958); experiment: substrate binding spectra of isolated P450OX; conditions: for substrate binding spectrum: upon substrate addition
T2 construct: from tissue; host or cells: microsomes of etiolated Sorghum bicolor seedlings
T2 sequence (O48958 1-531): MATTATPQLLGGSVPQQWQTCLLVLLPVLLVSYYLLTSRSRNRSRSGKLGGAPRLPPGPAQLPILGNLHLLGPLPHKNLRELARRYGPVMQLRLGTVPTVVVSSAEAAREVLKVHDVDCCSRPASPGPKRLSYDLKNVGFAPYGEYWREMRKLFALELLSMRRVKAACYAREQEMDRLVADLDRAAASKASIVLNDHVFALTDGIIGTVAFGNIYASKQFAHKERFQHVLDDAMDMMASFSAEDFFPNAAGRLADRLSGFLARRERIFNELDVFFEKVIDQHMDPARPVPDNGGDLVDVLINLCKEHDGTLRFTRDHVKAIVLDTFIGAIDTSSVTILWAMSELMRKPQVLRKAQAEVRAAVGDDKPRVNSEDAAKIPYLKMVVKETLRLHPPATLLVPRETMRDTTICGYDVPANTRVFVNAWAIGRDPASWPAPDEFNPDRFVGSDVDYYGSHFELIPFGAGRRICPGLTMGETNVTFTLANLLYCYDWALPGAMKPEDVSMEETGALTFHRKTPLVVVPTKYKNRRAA
Protocol: The identification of P450OX as a multifunctional enzyme converting p-hydroxyphenylacetaldoxime to p-hydroxymandelonitrile with p-hydroxyphenylacetonitrile as an intermediate stimulated us to investigate the substrate binding ability of P450OX. […] The amplitude increased in size upon incubation and reached a stable maximum after approximately 45 min.
The isolated P450OX produces a reverse Type I substrate binding spectrum upon incubation with p-hydroxyphenylacetaldoxime. The extinction coefficient E420-390 corresponding to a complete transition from one spin state to the other is 130 mM^−1 cm^−1. In the substrate binding spectra obtained, the maximal amplitudes are approximately twice as large as theoretically calculated even when assuming a complete shift from a high spin to a low spin state. […] Alternatively, the P420 form of P450OX is able to bind the oxime and thus contributes to the size of the substrate binding spectrum formed. The latter possibility could explain why maximal amplitudes are only obtained after prolonged incubation.

microsomal system = conditions: the substance is the substrate, cited from earlier work; for Km: read-out: Km for p-hydroxymandelonitrile production
cytochrome P450OX [3] = target: T1, cytochrome P450OX; experiment: reconstitution of cytochrome P450OX activity in lipid micelles; type: biochemical; design: 10 μl of the cytochrome P450OX (approximately 0.4 pmol) solution; from tissue; host or cells: microsomes of etiolated Sorghum bicolor seedlings
Excerpt: as §1, §2, §3

P450TYR (CYP79) = target: T3, P450TYR (CYP79) (Sorghum bicolor, UniProt Q43135); conditions: upon in vitro reconstitution; cited from earlier work
T3 sequence (Q43135 1-558): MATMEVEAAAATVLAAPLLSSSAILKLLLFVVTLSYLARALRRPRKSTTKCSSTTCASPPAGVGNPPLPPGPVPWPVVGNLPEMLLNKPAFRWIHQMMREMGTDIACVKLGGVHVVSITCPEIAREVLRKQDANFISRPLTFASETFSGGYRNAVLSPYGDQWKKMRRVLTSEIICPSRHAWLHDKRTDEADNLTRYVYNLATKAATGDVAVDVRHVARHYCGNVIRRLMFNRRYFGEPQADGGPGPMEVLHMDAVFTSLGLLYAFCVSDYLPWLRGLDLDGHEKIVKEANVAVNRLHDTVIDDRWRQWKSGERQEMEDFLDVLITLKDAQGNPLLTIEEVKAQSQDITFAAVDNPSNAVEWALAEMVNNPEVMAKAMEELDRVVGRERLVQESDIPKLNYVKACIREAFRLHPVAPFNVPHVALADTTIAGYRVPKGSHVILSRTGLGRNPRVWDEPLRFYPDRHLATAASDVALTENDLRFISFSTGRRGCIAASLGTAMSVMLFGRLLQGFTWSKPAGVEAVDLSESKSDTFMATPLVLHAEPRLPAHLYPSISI

Molecule: O=S([O-])S(=O)[O-].[Na+].[Na+] [Sodium dithionite, reference compound]
- support of metabolism of p-hydroxyphenylacetaldoxime by P450OX (cytochrome P450OX [1]): does not support metabolism

Molecule: O[C@H]1[C@H](O)[C@@H](O)CN2CC[C@H](O)[C@H]12 [castanospermine]
- inhibition of glucosidase activity [2]: efficiently inhibited

Molecule: ON=CCc1ccc(O)cc1 [p-hydroxyphenylacetaldoxime]
- incubation time until the amplitude of the binding spectrum reached a stable maximum (P450OX): approximately 45 min
- substrate binding spectrum (P450OX): reverse type I spectrum
- Km (microsomal system): 50 µM
- Vmax for p-hydroxymandelonitrile production (microsomal system): 400 nmoles mg protein^−1 h^−1
- metabolism of the oxime as substrate of P450OX (cytochrome P450OX [3]): fully metabolized

Molecule: N#CCc1ccc(O)cc1 [p-hydroxyphenylacetonitrile]
- substrate binding spectrum (P450OX): No substrate binding spectrum was obtained
- Km (microsomal system): 100 µM
- Vmax for p-hydroxymandelonitrile production (microsomal system): 50 nmoles mg protein^−1 h^−1

Molecule: ON=CCc1ccccc1 [phenylacetaldoxime]
- metabolism of the oxime as substrate of P450OX (cytochrome P450OX [3]): can metabolize

Molecule: N[C@@H](Cc1ccc(O)cc1)C(=O)O [tyrosine]
- Km (microsomal system): 30 µM
- Vmax for p-hydroxymandelonitrile production (microsomal system): 145 nmoles mg protein^−1 h^−1

B1: P450TYR: cytochrome P450 of Sorghum bicolor that converts tyrosine to p-hydroxyphenylacetaldehyd oxime (protein, UniProt Q43135 2-558, looked up)
Tyrosine N-monooxygenase: ATMEVEAAAATVLAAPLLSSSAILKLLLFVVTLSYLARALRRPRKSTTKCSSTTCASPPAGVGNPPLPPGPVPWPVVGNLPEMLLNKPAFRWIHQMMREMGTDIACVKLGGVHVVSITCPEIAREVLRKQDANFISRPLTFASETFSGGYRNAVLSPYGDQWKKMRRVLTSEIICPSRHAWLHDKRTDEADNLTRYVYNLATKAATGDVAVDVRHVARHYCGNVIRRLMFNRRYFGEPQADGGPGPMEVLHMDAVFTSLGLLYAFCVSDYLPWLRGLDLDGHEKIVKEANVAVNRLHDTVIDDRWRQWKSGERQEMEDFLDVLITLKDAQGNPLLTIEEVKAQSQDITFAAVDNPSNAVEWALAEMVNNPEVMAKAMEELDRVVGRERLVQESDIPKLNYVKACIREAFRLHPVAPFNVPHVALADTTIAGYRVPKGSHVILSRTGLGRNPRVWDEPLRFYPDRHLATAASDVALTENDLRFISFSTGRRGCIAASLGTAMSVMLFGRLLQGFTWSKPAGVEAVDLSESKSDTFMATPLVLHAEPRLPAHLYPSISI
- turn-over number (P450TYR (CYP79)): 230 min⁻¹
